The record followed here is PubChem BioAssay AID328 (DTP/NCI, 2004).

Several values for one entry are separate records, joined by “and”; a condition that tells them apart may be missing. Identical values can stand only once. Inconclusive results and toxic doses are left out.

For the test, the system named is BDF1 mice, P388 leukemia ip, median survival T/C. In words: NCI In Vivo Anticancer Drug Screen. Data for tumor model P388 Leukemia (intraperitoneal) in B6D2F1 (BDF1) mice. The settings on record: endpoint: median survival time, higher = longer survival. Summed up: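 Antitumour effect was judged in vivo: survival in drug-treated mice, normalised to that of vehicle-dosed controls, gives the reported T/C.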

The mark [1] stands for this setting: dose: 100.0 mg/kg/injection, schedule: Q01DX009 (ip), vehicle: Klucel (hydroxypropylcellulose) (HPC).
Setting [2] is: dose: 200.0 mg/kg/injection, schedule: Q01DX009 (ip), vehicle: Klucel (hydroxypropylcellulose) (HPC).
Setting [3] is: dose: 50.0 mg/kg/injection, schedule: Q01DX009 (ip), vehicle: saline with Tween-80.
Setting [4] is: dose: 100.0 mg/kg/injection, schedule: Q01DX009 (ip), vehicle: saline with Tween-80.
Where [5] appears, read: dose: 200.0 mg/kg/injection, schedule: Q01DX009 (ip), vehicle: saline with Tween-80.
Where [6] appears, read: dose: 50.0 mg/kg/injection, schedule: Q01DX009 (ip), vehicle: Klucel (hydroxypropylcellulose) (HPC).
The mark [7] stands for this setting: dose: 100.0 mg/kg/injection, schedule: Q04DX003 (ip), vehicle: saline with Tween-80.
Setting [8] is: dose: 200.0 mg/kg/injection, schedule: Q04DX003 (ip), vehicle: saline with Tween-80.
Setting [9] is: dose: 50.0 mg/kg/injection, schedule: Q04DX003 (ip), vehicle: saline with Tween-80.
[10] abbreviates: dose: 12.5 mg/kg/injection, schedule: Q01DX009 (ip), vehicle: saline.
Setting [11] is: dose: 25.0 mg/kg/injection, schedule: Q01DX009 (ip), vehicle: saline.
The mark [12] stands for this setting: dose: 50.0 mg/kg/injection, schedule: Q01DX009 (ip), vehicle: saline.
Where [13] appears, read: dose: 100.0 mg/kg/injection, schedule: Q01DX009 (ip), vehicle: saline.
Setting [14] is: dose: 25.0 mg/kg/injection, schedule: Q01DX009 (ip), vehicle: saline with Tween-80.

Regarding `Cc1ccc(S(=O)(=O)OCC(CO)(COS(=O)(=O)c2ccc(C)cc2)[N+](=O)[O-])cc1`, the T/C under setting [1] was 100 % of control; the T/C (dose: 100.0 mg/kg/injection, schedule: Q04DX003 (ip), vehicle: Klucel (hydroxypropylcellulose) (HPC)) is 113 % of control; the T/C under setting [2] is 95 % of control; the T/C (dose: 200.0 mg/kg/injection, schedule: Q04DX003 (ip), vehicle: Klucel (hydroxypropylcellulose) (HPC)) is 121 % of control; the T/C (dose: 400.0 mg/kg/injection, schedule: Q04DX003 (ip), vehicle: Klucel (hydroxypropylcellulose) (HPC)) was 121 % of control.

Consider `CCOC(=O)c1ccccc1S(=O)(=O)c1ccccc1C(=O)OCC`, for which the T/C reads like this: under setting [3], 106 % of control; under setting [4], 100 % of control; under setting [5], 112 % of control.

For the compound `NC(CCCC(=O)O)P(=O)(O)O` (stereo not given), the T/C runs as follows: under setting [6], 112 % of control; under setting [1], 110 % of control; under setting [2], 113 % of control.

In the case of `O=C1c2ccccc2C(O)(c2ccccc2)c2c(Cl)cccc21` (stereo not given), the T/C is 104 % of control under setting [3], 111 % of control under setting [4] and 95 % of control under setting [5].

As to `COc1ccccc1OC(=O)Nc1ccccc1F`, the T/C under setting [7] is 90 % of control; the T/C under setting [8] was 90 % of control; the T/C (dose: 400.0 mg/kg/injection, schedule: Q04DX003 (ip), vehicle: saline with Tween-80) is 100 % of control.

Take `CCOC(=O)NCCCCCCNC(=O)OCC`: the T/C under setting [3] was 95 % of control, the T/C under setting [4] is 100 % of control and the T/C under setting [8] was 90 % of control.

`CC(=O)Nc1c(Cl)cc2c(c1Cl)Cc1cc(N=Cc3ccc4c(c3)OCO4)ccc1-2`: the T/C (dose: 25.0 mg/kg/injection, schedule: Q01DX009 (ip), vehicle: Klucel (hydroxypropylcellulose) (HPC)) is 90 % of control; the T/C under setting [6] is 90 % of control; the T/C under setting [1] was 86 % of control.

In the case of `CNC1C(OC2C(OC3C(O)C(O)C(N=C(N)N)C(O)C3N=C(N)N)OC(C)C2(O)C=O)OC(CO)C(O)C1O` (stereo not given), the T/C by setting is: (dose: 100.0 mg/kg/injection, schedule: Q01DX009 (ip), vehicle: water) 103 % of control; (dose: 200.0 mg/kg/injection, schedule: Q01DX009 (ip), vehicle: water) 112 % of control; (dose: 400.0 mg/kg/injection, schedule: Q01DX009 (ip), vehicle: water) 103 % of control.

Turning to `Cc1sc(N)c(C#N)c1C`, the T/C runs as follows: under setting [9], 100 % of control; under setting [7], 120 % of control; under setting [8], 100 % of control.

Take `CCCCCC(C[N+]1(C)CCOCC1)C(=O)/C=C/c1ccccc1` (stereo not given): the T/C is, setting by setting: under setting [10], 95 % of control; under setting [11], 120 % of control; under setting [12], 124 % of control.

As to `CC[N+](CC)(CC)CC`, the T/C is, setting by setting: (dose: 3.13 mg/kg/injection, schedule: Q01DX009 (ip), vehicle: saline with Tween-80) 110 % of control; (dose: 6.0 mg/kg/injection, schedule: Q01DX009 (ip), vehicle: saline with Tween-80) 183 % of control; (dose: 9.0 mg/kg/injection, schedule: Q01DX009 (ip), vehicle: saline with Tween-80) 94 % of control; under setting [10], 107 % of control; (dose: 12.5 mg/kg/injection, schedule: Q04DX003 (ip), vehicle: saline) 95 % of control; under setting [11], 107 % of control. Also, the T/C runs as follows: (dose: 25.0 mg/kg/injection, schedule: Q04DX003 (ip), vehicle: saline) 91 % of control; under setting [12], 92 % of control; (dose: 50.0 mg/kg/injection, schedule: Q04DX003 (ip), vehicle: saline) 100 % of control.

`CCCCC[C@@H](CN(C)C)[C@H](O)/C=C/c1ccc(Cl)cc1`: the T/C under setting [6] was 96 % of control.

With `OCc1ccn2c1C(O)CC2` (stereo not given), the T/C (dose: 12.5 mg/kg/injection, schedule: Q01DX009 (ip), vehicle: other) is 112 % of control; the T/C (dose: 25.0 mg/kg/injection, schedule: Q01DX009 (ip), vehicle: other) is 102 % of control; the T/C under setting [11] was 115 % of control; the T/C (dose: 50.0 mg/kg/injection, schedule: Q01DX009 (ip), vehicle: other) was 100 % of control; the T/C under setting [12] was 165 % of control; the T/C (dose: 100.0 mg/kg/injection, schedule: Q01DX009 (ip), vehicle: other) was 100 % of control. Under setting [13], the T/C was 240 % of control and 100 % of control.

`CCOC(=O)Nc1cc(NC/C(=N/O)c2ccc(OC)cc2)c([N+](=O)[O-])c(N)n1`: the T/C by setting is: (dose: 12.5 mg/kg/injection, schedule: Q01DX001 (ip), vehicle: Klucel (hydroxypropylcellulose) (HPC)) 93 % of control; (dose: 25.0 mg/kg/injection, schedule: Q01DX001 (ip), vehicle: Klucel (hydroxypropylcellulose) (HPC)) 93 % of control; (dose: 50.0 mg/kg/injection, schedule: Q01DX001 (ip), vehicle: Klucel (hydroxypropylcellulose) (HPC)) 93 % of control.

`COc1cc(N2CCOCC2)ccc1[N+](=O)[O-]`: the T/C is, setting by setting: under setting [13], 91 % of control; (dose: 100.0 mg/kg/injection, schedule: Q04DX003 (ip), vehicle: saline) 109 % of control; (dose: 200.0 mg/kg/injection, schedule: Q01DX009 (ip), vehicle: saline) 100 % of control; (dose: 200.0 mg/kg/injection, schedule: Q04DX003 (ip), vehicle: saline) 104 % of control; (dose: 400.0 mg/kg/injection, schedule: Q04DX003 (ip), vehicle: saline) 95 % of control.

Take `CC(C)=NN1C(=O)c2ccccc2C1=O`: the T/C was 101 % of control under setting [14], 101 % of control under setting [3] and 100 % of control under setting [4].

As for `CC1CN(Cc2ccccc2)CC(C)N1` (stereo not given), the T/C by setting is: (dose: 50.0 mg/kg/injection, schedule: Q04DX003 (ip), vehicle: water) 106 % of control; (dose: 100.0 mg/kg/injection, schedule: Q04DX003 (ip), vehicle: water) 104 % of control; (dose: 200.0 mg/kg/injection, schedule: Q04DX003 (ip), vehicle: water) 92 % of control.

As for `C/C=C/N=NNc1ccccc1OC`, the T/C by setting is: (dose: 25.0 mg/kg/injection, schedule: Q04DX003 (ip), vehicle: saline with Tween-80) 113 % of control; under setting [9], 104 % of control; under setting [7], 104 % of control.

In the case of `Cc1ccc2c(C)c3ccc4ccccc4c3c[n+]2c1`, the T/C (dose: 20.0 mg/kg/injection, schedule: Q04DX003 (ip), vehicle: saline) is 118 % of control and the T/C (dose: 40.0 mg/kg/injection, schedule: Q04DX003 (ip), vehicle: saline) is 118 % of control.

For `O=C(Cl)C1CCCCC1`, the T/C is, setting by setting: under setting [3], 100 % of control; under setting [4], 104 % of control.

Turning to `CN1CCN(c2nc3ccccc3n3nnnc23)CC1`, the T/C (dose: 18.75 mg/kg/injection, schedule: Q01DX009 (ip), vehicle: saline with Tween-80) was 103 % of control and the T/C (dose: 37.5 mg/kg/injection, schedule: Q01DX009 (ip), vehicle: saline with Tween-80) is 100 % of control.

Take `C=CCCCCCCCCC(=O)NC[n+]1cccc(O)c1`: the T/C is 110 % of control under setting [14], 100 % of control under setting [3] and 100 % of control under setting [4].
